Experimental findings from patent US12351581B2, “Compounds for FGFR inhibition” (Cogent Biosciences, Inc., priority 2023, dated 2025) are described below.

One assay has as its target T1, FGFR2 (Homo sapiens, UniProt P21802).
T1 construct: biochemical assays using purified intracellular domains of the respective isoforms; purchased Carna Bioscience 08-134
Kind of assay: FGFR wild type enzyme assay (HTRF KinEASE-TK). The assay is classed as biochemical. The note with it: ATP 2 uM. The procedure, abridged: (§1)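 Purified intracellular kinase domains, enzyme pre-incubated 30 min with compound (11-point 1:3 dilutions, typically 10,000-0.17 nM), then ATP plus 0.5 uM TK-peptide, 60 min at room temperature in HEPES pH7.5 with Mg2+/Mn2+. HTRF 665/615 ratio converted to percent of control; IC50 from four-parameter logistic fit.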
On the technique in general: TR-FRET usually uses a lanthanide donor and a delayed reading to cut background.

The target in another assay is T2, FGFR2 V564F (Homo sapiens, UniProt P21802, V564F).
T2 construct: biochemical assays using purified intracellular domains of the respective isoforms; purchased SignalChem Biotech F05-12FG
As to the kind of experiment: FGFR mutant enzyme assay (HTRF KinEASE-TK). The class given is biochemical. The conditions noted are these: ATP 1.5 uM. The essentials: as §1

The target of another assay is T3, FGFR2 N549H (Homo sapiens, UniProt P21802, N549H).
T3 construct: biochemical assays using purified intracellular domains of the respective isoforms; purchased Carna Bioscience 08-532
Kind of assay: FGFR mutant enzyme assay (HTRF KinEASE-TK). The class given is biochemical. The note with it: ATP 0.9 uM. The procedure, abridged: as §1

The target of the next assay is T4, FGFR2 V564I (Homo sapiens, UniProt P21802, V564I).
T4 construct: biochemical assays using purified intracellular domains of the respective isoforms; purchased Carna Bioscience 08-546
Kind of assay: FGFR mutant enzyme assay (HTRF KinEASE-TK). The assay is classed as biochemical. The note with it: ATP 0.4 uM. The essentials:
as §1

A further assay addresses FGFR2-WT (Homo sapiens, UniProt P21802). Kind of assay: Phosphorylated FGFR2-WT (pFGFR2-WT) cell assay, KATOIII cells. The assay is classed as cell-based. The conditions noted are these: 1 hour incubation, phospho FGFR2 HTRF. The procedure, abridged: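 KATOIII cells treated 1 h at 37 °C with threefold compound dilutions (10 μM to 0.5 nM). Lysate phospho-FGFR2 (Tyr653/654) read by HTRF.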

[1] abbreviates: compound table after the examples, read-out: Enz FGFR2.

SMILES strings stand for the structures. Read-outs that look alike come from different tables or passages of the source.

T2 sequence (P21802 399-821 V564F limits assumed): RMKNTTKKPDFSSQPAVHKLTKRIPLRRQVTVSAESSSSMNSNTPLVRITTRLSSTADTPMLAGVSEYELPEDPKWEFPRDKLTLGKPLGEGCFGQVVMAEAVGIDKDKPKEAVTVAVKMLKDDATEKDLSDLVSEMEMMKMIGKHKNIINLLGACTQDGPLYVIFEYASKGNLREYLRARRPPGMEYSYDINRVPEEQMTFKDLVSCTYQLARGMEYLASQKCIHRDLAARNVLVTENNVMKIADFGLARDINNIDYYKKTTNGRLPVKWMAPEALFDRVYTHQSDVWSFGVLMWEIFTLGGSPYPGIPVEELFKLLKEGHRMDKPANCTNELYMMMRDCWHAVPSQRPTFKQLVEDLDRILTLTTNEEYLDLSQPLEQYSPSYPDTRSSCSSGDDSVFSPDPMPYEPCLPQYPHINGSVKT
T4 sequence (P21802 399-821 V564I limits assumed): as the sequence (P21802 399-821 V564F limits assumed) above, with F166I counted along it
T1 sequence (P21802 399-821 limits assumed): as the sequence (P21802 399-821 V564F limits assumed) above, with F166V counted along it
T3 sequence (P21802 399-821 N549H limits assumed): as the sequence (P21802 399-821 V564F limits assumed) above, with N151H, F166V counted along it
Sequence of FGFR2-WT (P21802 430-767 limits assumed): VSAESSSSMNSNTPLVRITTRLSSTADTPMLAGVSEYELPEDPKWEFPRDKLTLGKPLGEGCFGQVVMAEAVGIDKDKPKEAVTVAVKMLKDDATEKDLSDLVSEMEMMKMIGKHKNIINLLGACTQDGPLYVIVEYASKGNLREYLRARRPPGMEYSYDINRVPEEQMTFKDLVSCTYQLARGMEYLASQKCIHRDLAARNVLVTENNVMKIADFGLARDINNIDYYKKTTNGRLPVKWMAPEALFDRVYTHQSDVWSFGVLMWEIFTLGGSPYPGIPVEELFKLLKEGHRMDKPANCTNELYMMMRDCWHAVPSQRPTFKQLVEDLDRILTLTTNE

Turning to `C[C@@H](Oc1cc(-c2ccc(N3CCN(C)[C@@H](CO)C3)nc2)cn2ncc(C#N)c12)c1ccc(F)cn1` [Compound 24, 4-((R)-1-(5-fluoropyridin-2-yl)ethoxy)-6-(6-((R)-3-(hydroxymethyl)-4-methylpiperazin-1-yl)pyridin-3-yl)pyrazolo[1,5-a]pyridine-3-carbonitrile], the IC50 is 0.3 nM on FGFR2 (Table 3, read-out: FGFR2 Enz); 0.3 nM on FGFR2 (setting [1]); 1 nM at FGFR2 V564F; 0.3 nM on FGFR2 N549H; 1 nM against FGFR2 V564I; 3 nM against FGFR2-WT.
Turning to `Cc1nn([C@H]2CCCNC2)c(C)c1-c1cc(O[C@H](C)c2ncccc2F)c2c(C#N)cnn2c1` [Compound 11, 6-(3,5-dimethyl-1-((S)-piperidin-3-yl)-1H-pyrazol-4-yl)-4-((R)-1-(3-fluoropyridin-2-yl)ethoxy)pyrazolo[1,5-a]pyridine-3-carbonitrile], the IC50 worked out at 1.4 nM at FGFR2 (Table 3, read-out: FGFR2 Enz); 0.5 nM at FGFR2 (setting [1]); 4.4 nM against FGFR2 V564F; 4.6 nM on FGFR2 N549H; 5.8 nM at FGFR2 V564I; 23 nM against FGFR2-WT.
Regarding `Cc1c(-c2cc(O[C@H](C)c3ccc(F)cn3)c3c(C#N)cnn3c2)cnn1[C@H]1CCCC[C@@H]1O` [Compound 61, 4-((R)-1-(5-fluoropyridin-2-yl)ethoxy)-6-(1-((1S,2S)-2-hydroxycyclohexyl)-5-methyl-1H-pyrazol-4-yl)pyrazolo[1,5-a]pyridine-3-carbonitrile], the IC50 came out at 0.3 nM on FGFR2 (Table 3, read-out: FGFR2 Enz); 0.3 nM at FGFR2 (setting [1]); 1 nM against FGFR2 V564F; 0.4 nM against FGFR2 N549H; 1.5 nM at FGFR2 V564I; 3 nM against FGFR2-WT.
Regarding `Cc1nn(C2CCNCC2)c(C)c1-c1cc(O[C@H](C)c2ccccn2)c2c(C#N)cnn2c1` [Compound 4, (R)-6-(3,5-dimethyl-1-(piperidin-4-yl)-1H-pyrazol-4-yl)-4-(1-(pyridin-2-yl)ethoxy)pyrazolo[1,5-a]pyridine-3-carbonitrile], the IC50 on FGFR2 (Table 3, read-out: FGFR2 Enz) was 1 nM; at FGFR2 (setting [1]), 1 nM; on FGFR2 V564F, 3 nM; against FGFR2 N549H, 2 nM; against FGFR2 V564I, 4 nM; against FGFR2-WT it was 26 nM.
For `Cc1c(-c2cc(O[C@H](C)c3ccc(Cl)cn3)c3c(C#N)cnn3c2)cnn1[C@H]1CCCNC1` [Compound 14, 4-((R)-1-(5-chloropyridin-2-yl)ethoxy)-6-(5-methyl-1-((S)-piperidin-3-yl)-1H-pyrazol-4-yl)pyrazolo[1,5-a]pyridine-3-carbonitrile], the IC50 at FGFR2 (Table 3, read-out: FGFR2 Enz) was 12.5 nM; at FGFR2 (setting [1]), 12.5 nM; at FGFR2 V564F it was 15 nM; against FGFR2 N549H it was 14 nM; at FGFR2 V564I, 38 nM; against FGFR2-WT, 267 nM.
For `Cc1nn(C[C@H](O)CO)cc1-c1cc(O[C@H](C)c2ccc(F)cn2)c2c(C#N)cnn2c1` [Compound 28, 6-(1-((S)-2,3-dihydroxypropyl)-3-methyl-1H-pyrazol-4-yl)-4-((R)-1-(5-fluoropyridin-2-yl)ethoxy)pyrazolo[1,5-a]pyridine-3-carbonitrile], the IC50 on FGFR2 (Table 3, read-out: FGFR2 Enz) came out at 3 nM; on FGFR2 (setting [1]) it was 3 nM; against FGFR2 V564F, 10 nM; against FGFR2 N549H it was 5 nM; on FGFR2 V564I it was 12 nM; against FGFR2-WT it was 17 nM.
Consider `Cc1c(-c2cc(O[C@H](C)c3ccc(F)cn3)c3c(C#N)cnn3c2)cnn1C1CCN(C(=O)CO)CC1` [Compound 42, (R)-4-(1-(5-fluoropyridin-2-yl)ethoxy)-6-(1-(1-(2-hydroxyacetyl)piperidin-4-yl)-5-methyl-1H-pyrazol-4-yl)pyrazolo[1,5-a]pyridine-3-carbonitrile], for which the IC50 at FGFR2 (Table 3, read-out: FGFR2 Enz) was 0.6 nM; on FGFR2 (setting [1]), 0.6 nM; on FGFR2 V564F it was 1.7 nM; on FGFR2 N549H it was 0.65 nM; against FGFR2 V564I, 2 nM; against FGFR2-WT, 4 nM.
On to `C[C@@H](Oc1cc(-c2ccc(N3CC[C@H](O)[C@H](O)C3)nc2)cn2ncc(C#N)c12)c1ccc(F)cn1` [Compound 26, 6-(6-((3R,4S)-3,4-dihydroxypiperidin-1-yl)pyridin-3-yl)-4-((R)-1-(5-fluoropyridin-2-yl)ethoxy)pyrazolo[1,5-a]pyridine-3-carbonitrile], for which the IC50 at FGFR2 (Table 3, read-out: FGFR2 Enz) came to 0.5 nM; at FGFR2 (setting [1]) it was 0.5 nM; against FGFR2 V564F, 1 nM; against FGFR2 N549H, 0.3 nM; against FGFR2 V564I, 1 nM; against FGFR2-WT it was 4 nM.
Take `Cc1c(-c2cc(O[C@H](C)c3ccc(F)cn3)c3c(C#N)cnn3c2)cnn1[C@H]1CCCN(C(=O)C(C)(C)O)C1` [Compound 17, 4-((R)-1-(5-fluoropyridin-2-yl)ethoxy)-6-(1-((S)-1-(2-hydroxy-2-methylpropanoyl)piperidin-3-yl)-5-methyl-1H-pyrazol-4-yl)pyrazolo[1,5-a]pyridine-3-carbonitrile]: the IC50 stood at 0.6 nM at FGFR2 (Table 3, read-out: FGFR2 Enz); 0.6 nM on FGFR2 (setting [1]); 1 nM against FGFR2 V564F; 0.5 nM against FGFR2 N549H; 1.7 nM at FGFR2 V564I; 3.4 nM against FGFR2-WT.
With `Cc1c(-c2cc(O[C@H](C)c3ccc(F)cn3)c3c(C#N)cnn3c2)cnn1[C@H]1CCCN(C(CO)CO)C1` [Compound 38, 6-(1-((S)-1-(1,3-dihydroxypropan-2-yl)piperidin-3-yl)-5-methyl-1H-pyrazol-4-yl)-4-((R)-1-(5-fluoropyridin-2-yl)ethoxy)pyrazolo[1,5-a]pyridine-3-carbonitrile], the IC50 at FGFR2 (Table 3, read-out: FGFR2 Enz) was found to be 0.4 nM; on FGFR2 (setting [1]), 0.4 nM; against FGFR2 V564F it was 1 nM; against FGFR2 N549H, 0.3 nM; on FGFR2 V564I, 1.3 nM; at FGFR2-WT, 6 nM.
In the case of `Cc1c(-c2cc(O[C@H](C)c3ccc(F)cn3)c3c(C#N)cnn3c2)cnn1[C@H]1CCCN(C(=O)[C@H](C)O)C1` [Compound 18, 4-((R)-1-(5-fluoropyridin-2-yl)ethoxy)-6-(1-((S)-1-((S)-2-hydroxypropanoyl)piperidin-3-yl)-5-methyl-1H-pyrazol-4-yl)pyrazolo[1,5-a]pyridine-3-carbonitrile], the IC50 at FGFR2 (Table 3, read-out: FGFR2 Enz) amounted to 0.5 nM; on FGFR2 (setting [1]) it was 0.6 nM; against FGFR2 V564F, 1 nM; on FGFR2 N549H, 0.5 nM; against FGFR2 V564I, 2 nM; at FGFR2-WT, 4 nM.
Turning to `Cc1c(-c2cc(O[C@H](C)c3ccc(F)cn3)c3c(C#N)cnn3c2)cnn1C[C@H](O)CO` [Compound 27, 6-(1-((S)-2,3-dihydroxypropyl)-5-methyl-1H-pyrazol-4-yl)-4-((R)-1-(5-fluoropyridin-2-yl)ethoxy)pyrazolo[1,5-a]pyridine-3-carbonitrile], the IC50 was found to be 3 nM at FGFR2 (Table 3, read-out: FGFR2 Enz); 3 nM on FGFR2 (setting [1]); 11 nM on FGFR2 V564F; 5 nM on FGFR2 N549H; 17 nM against FGFR2 V564I; 23 nM against FGFR2-WT.
Consider `Cc1c(-c2cc(O[C@H](C)c3ccc(F)cn3)c3c(C#N)cnn3c2)cnn1[C@@H]1CCC[C@@H](O)C1` [Compound 68, 4-((R)-1-(5-fluoropyridin-2-yl)ethoxy)-6-(1-((1R,3R)-3-hydroxycyclohexyl)-5-methyl-1H-pyrazol-4-yl)pyrazolo[1,5-a]pyridine-3-carbonitrile], for which the IC50 on FGFR2 (Table 3, read-out: FGFR2 Enz) was 1 nM; at FGFR2 (setting [1]), 1 nM; against FGFR2 V564F, 3 nM; against FGFR2 N549H, 1 nM; at FGFR2 V564I, 4 nM; against FGFR2-WT, 8 nM.
Take `C[C@@H](Oc1cc(-c2cnn([C@H]3CCCNC3)c2N)cn2ncc(C#N)c12)c1ccc(F)cn1` [Compound 29, 6-(5-amino-1-((S)-piperidin-3-yl)-1H-pyrazol-4-yl)-4-((R)-1-(5-fluoropyridin-2-yl)ethoxy)pyrazolo[1,5-a]pyridine-3-carbonitrile]: the IC50 amounted to 0.3 nM at FGFR2 (Table 3, read-out: FGFR2 Enz); 0.3 nM at FGFR2 (setting [1]); 1.4 nM against FGFR2 V564F; 0.6 nM against FGFR2 N549H; 1.5 nM against FGFR2 V564I; 4 nM at FGFR2-WT.
